Data taken from ChEMBL document CHEMBL3351793, “Orally bioavailable factor Xa inhibitors containing alpha-substituted gem-dimethyl P4 moieties” (Bioorg Med Chem Lett, 2014).
Blank lines part the entries; values can stand above or below the molecule they belong to.

Columns and labels:
[1] = target: Coagulation factor X (Homo sapiens, UniProt P00742); assay: Inhibition of purified human factor Xa
[2] = Apparent permeability from apical to basolateral side of the human Caco2 cells; type: ADME, cell-based; settings: caco-2
[3] = Clearance in dog at 0.5 mg/kg, iv and 0.2 mg/kg, po administered as cassette dosing; type: ADME, organism-based, Canis lupus familiaris; settings: in vivo
[4] = Volume of distribution at steady state in dog at 0.5 mg/kg, iv and 0.2 mg/kg, po administered as cassette dosing; type: ADME, organism-based, Canis lupus familiaris; settings: in vivo, read-out: Vdss
[5] = Half life in dog at 0.2 mg/kg, po administered as cassette dosing; type: ADME, organism-based, Canis lupus familiaris; design: dose 0.2 mg/kg, route oral; settings: in vivo
[6] = Oral bioavailability in dog at 0.2 mg/kg administered as cassette dosing; type: ADME, organism-based, Canis lupus familiaris; settings: in vivo
[7] = target: Trypsin (Homo sapiens, UniProt P07477+P07478+P35030); assay: Inhibition of human trypsin; type: protein assay
[8] = target: Prothrombin (Homo sapiens, UniProt P00734); assay: Inhibition of human thrombin
[9] = target: Plasma kallikrein (Homo sapiens, UniProt P03952); assay: Inhibition of human plasma kallikrein
[10] = Inhibition of human chymotrypsin
[11] = target: Vitamin K-dependent protein C (Homo sapiens, UniProt P04070); assay: Inhibition of human activated protein C
[12] = target: Coagulation factor IX (Homo sapiens, UniProt P00740); assay: Inhibition of human factor 9a
[13] = Inhibition of human factor 7a
[14] = target: Coagulation factor XI (Homo sapiens, UniProt P03951); assay: Inhibition of human factor 11a
[15] = target: Urokinase-type plasminogen activator (Homo sapiens, UniProt P00749); assay: Inhibition of human urokinase
[16] = target: Tissue-type plasminogen activator (Homo sapiens, UniProt P00750); assay: Inhibition of human tissue plasminogen activator
[17] = tested on: Plasma; assay: Anticoagulant activity in human plasma assessed as concentration required to double prothrombin time; type: functional

Coagulation factor X, sequence (P00742 41-179 limits assumed): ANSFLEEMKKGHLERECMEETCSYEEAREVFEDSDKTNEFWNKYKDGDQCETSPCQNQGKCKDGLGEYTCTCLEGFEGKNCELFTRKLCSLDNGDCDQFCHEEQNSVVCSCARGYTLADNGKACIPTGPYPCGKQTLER
Coagulation factor X, sequence (P00742 235-488 limits assumed): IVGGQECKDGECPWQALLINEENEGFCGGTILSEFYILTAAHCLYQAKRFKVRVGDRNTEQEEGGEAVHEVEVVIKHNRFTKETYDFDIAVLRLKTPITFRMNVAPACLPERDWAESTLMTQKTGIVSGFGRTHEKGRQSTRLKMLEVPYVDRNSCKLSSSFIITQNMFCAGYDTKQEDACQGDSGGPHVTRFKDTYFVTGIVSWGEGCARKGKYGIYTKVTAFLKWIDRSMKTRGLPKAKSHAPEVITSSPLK
Vitamin K-dependent protein C, sequence (P04070 43-197 limits assumed): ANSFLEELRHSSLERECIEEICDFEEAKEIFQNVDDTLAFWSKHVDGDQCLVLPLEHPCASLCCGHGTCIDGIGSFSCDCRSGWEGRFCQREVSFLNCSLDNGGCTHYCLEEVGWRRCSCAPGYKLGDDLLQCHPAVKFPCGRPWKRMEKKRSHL
Vitamin K-dependent protein C, sequence (P04070 212-461 limits assumed): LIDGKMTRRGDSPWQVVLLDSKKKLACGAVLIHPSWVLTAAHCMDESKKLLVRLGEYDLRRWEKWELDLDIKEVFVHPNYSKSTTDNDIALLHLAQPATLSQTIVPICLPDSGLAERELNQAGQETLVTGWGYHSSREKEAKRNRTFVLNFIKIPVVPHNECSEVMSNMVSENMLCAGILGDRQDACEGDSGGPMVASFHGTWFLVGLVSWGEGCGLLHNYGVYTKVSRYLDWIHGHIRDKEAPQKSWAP
Plasma kallikrein, sequence (P03952 20-390 limits assumed): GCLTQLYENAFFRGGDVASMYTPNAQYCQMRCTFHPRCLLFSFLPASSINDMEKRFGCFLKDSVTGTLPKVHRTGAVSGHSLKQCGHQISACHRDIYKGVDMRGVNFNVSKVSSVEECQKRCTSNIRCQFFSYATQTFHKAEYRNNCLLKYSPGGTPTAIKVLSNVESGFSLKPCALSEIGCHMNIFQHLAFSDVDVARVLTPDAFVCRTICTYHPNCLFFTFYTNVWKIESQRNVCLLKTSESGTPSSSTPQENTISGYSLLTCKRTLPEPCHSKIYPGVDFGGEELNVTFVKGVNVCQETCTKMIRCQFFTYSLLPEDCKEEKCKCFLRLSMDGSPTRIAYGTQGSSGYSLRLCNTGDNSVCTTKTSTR
Plasma kallikrein, sequence (P03952 391-638 limits assumed): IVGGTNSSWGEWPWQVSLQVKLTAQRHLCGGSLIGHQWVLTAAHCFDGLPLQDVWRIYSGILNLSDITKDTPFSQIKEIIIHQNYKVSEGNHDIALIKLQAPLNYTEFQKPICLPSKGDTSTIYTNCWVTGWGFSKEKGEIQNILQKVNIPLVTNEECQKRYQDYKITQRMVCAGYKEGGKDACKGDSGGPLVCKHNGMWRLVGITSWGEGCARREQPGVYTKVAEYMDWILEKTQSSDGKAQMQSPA
Tissue-type plasminogen activator, sequence (P00750 whole entry): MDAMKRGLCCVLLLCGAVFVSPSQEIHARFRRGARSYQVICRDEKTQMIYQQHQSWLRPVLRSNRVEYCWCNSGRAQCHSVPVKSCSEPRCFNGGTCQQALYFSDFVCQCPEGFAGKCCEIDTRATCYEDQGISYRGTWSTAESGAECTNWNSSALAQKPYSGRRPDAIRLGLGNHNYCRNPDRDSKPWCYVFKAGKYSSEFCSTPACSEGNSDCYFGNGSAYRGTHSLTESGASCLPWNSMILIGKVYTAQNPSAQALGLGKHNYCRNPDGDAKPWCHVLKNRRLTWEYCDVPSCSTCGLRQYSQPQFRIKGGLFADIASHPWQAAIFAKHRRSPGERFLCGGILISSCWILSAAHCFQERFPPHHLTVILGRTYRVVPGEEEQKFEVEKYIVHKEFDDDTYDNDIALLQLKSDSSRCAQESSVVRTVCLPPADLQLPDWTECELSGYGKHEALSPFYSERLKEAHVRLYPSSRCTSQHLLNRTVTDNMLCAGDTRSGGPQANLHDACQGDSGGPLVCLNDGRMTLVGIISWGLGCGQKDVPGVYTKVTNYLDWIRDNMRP
Coagulation factor IX, sequence (P00740 47-191 limits assumed): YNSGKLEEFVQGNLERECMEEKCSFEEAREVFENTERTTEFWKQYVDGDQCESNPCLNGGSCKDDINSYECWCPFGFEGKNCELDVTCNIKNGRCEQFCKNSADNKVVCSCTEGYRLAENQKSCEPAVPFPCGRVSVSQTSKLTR
Coagulation factor IX, sequence (P00740 227-461 limits assumed): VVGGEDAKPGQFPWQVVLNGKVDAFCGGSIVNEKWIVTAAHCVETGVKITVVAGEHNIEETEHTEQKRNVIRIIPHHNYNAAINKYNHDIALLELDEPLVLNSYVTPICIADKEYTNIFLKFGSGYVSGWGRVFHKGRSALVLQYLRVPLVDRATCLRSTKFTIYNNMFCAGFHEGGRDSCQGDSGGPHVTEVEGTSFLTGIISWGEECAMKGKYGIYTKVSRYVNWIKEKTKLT
Coagulation factor XI, sequence (P03951 19-387 limits assumed): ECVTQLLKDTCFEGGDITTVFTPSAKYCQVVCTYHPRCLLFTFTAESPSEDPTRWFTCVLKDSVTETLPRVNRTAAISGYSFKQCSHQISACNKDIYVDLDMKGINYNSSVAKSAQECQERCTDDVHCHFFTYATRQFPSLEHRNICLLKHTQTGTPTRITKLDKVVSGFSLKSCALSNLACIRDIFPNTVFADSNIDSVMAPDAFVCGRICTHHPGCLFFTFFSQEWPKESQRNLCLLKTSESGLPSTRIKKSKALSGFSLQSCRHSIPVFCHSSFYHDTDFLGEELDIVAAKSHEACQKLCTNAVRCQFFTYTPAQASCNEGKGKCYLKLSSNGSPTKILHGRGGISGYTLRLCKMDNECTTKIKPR
Coagulation factor XI, sequence (P03951 388-625 limits assumed): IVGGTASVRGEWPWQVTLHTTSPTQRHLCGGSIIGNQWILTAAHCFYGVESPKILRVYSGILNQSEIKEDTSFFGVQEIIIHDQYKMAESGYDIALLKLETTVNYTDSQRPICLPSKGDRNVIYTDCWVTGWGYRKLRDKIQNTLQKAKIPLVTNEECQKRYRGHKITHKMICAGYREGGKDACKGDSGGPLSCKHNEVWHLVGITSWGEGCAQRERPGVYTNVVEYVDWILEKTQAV

Structure (SMILES): COc1ccc(-n2nc(C(N)=O)c3c2C(=O)N(c2ccc(C(C)(C)CO)cc2)CC3)cc1
Ki [1]: 0.66 nM | Papp [2]: 5.8 ×10⁻⁶ cm/s | clearance [3]: 16.3 mL/min/kg | Vd [4]: 3.02 L/kg | half-life [5]: 4.95 h | bioavailability [6]: 50% | Ki [7]: > 15000 nM | Ki [8]: 2580 nM | Ki [9]: > 11000 nM | Ki [10]: > 40000 nM | Ki [11]: > 37600 nM | Ki [12]: > 15000 nM | Ki [13]: > 15000 nM | Ki [14]: > 15000 nM | Ki [15]: > 13000 nM | Ki [16]: > 43000 nM | Activity [17]: 3.8 µM

Structure (SMILES): COc1ccc(-n2nc(S(C)(=O)=O)c3c2C(=O)N(c2ccc(C(C)(C)CO)cc2)CC3)cc1
Ki [1]: 1.01 nM | Papp [2]: 3.6 ×10⁻⁶ cm/s | Activity [17]: 3.9 µM

Structure (SMILES): COc1ccc(-n2nc(S(C)(=O)=O)c3c2C(=O)N(c2ccc(C(C)(C)CN4CCCC4)cc2)CC3)cc1
Ki [1]: 0.24 nM | Papp [2]: 4.3 ×10⁻⁶ cm/s | clearance [3]: 36.7 mL/min/kg | Vd [4]: 5.5 L/kg | half-life [5]: 1.4 h | bioavailability [6]: 10% | Activity [17]: 0.92 µM

Structure (SMILES): COc1ccc(-n2nc(S(C)(=O)=O)c3c2C(=O)N(c2ccc(C(C)(C)CN4CCOCC4)cc2)CC3)cc1
Ki [1]: 0.32 nM | Papp [2]: 17 ×10⁻⁶ cm/s | clearance [3]: 21.3 mL/min/kg | Vd [4]: 10.1 L/kg | half-life [5]: 4.18 h | bioavailability [6]: 13% | Activity [17]: 3.7 µM

Structure (SMILES): COc1ccc(-n2nc(C(N)=O)c3c2C(=O)N(c2ccc(C(C)(C)C#N)cc2)CC3)cc1
Ki [1]: 1.22 nM | Papp [2]: 18 ×10⁻⁶ cm/s | Activity [17]: 3.4 µM

Structure (SMILES): COc1ccc(-n2nc(C(N)=O)c3c2C(=O)N(c2ccc(C(C)(C)CN)cc2)CC3)cc1
Ki [1]: 0.15 nM | Papp [2]: 0.7 ×10⁻⁶ cm/s | clearance [3]: 56 mL/min/kg | Vd [4]: 11.8 L/kg | half-life [5]: 3.33 h | bioavailability [6]: 44% | Activity [17]: 0.69 µM

Structure (SMILES): COc1ccc(-n2nc(C(N)=O)c3c2C(=O)N(c2ccc(C(C)(C)CN4CCCCC4=O)cc2)CC3)cc1
Ki [1]: 1.5 nM | Papp [2]: 8.3 ×10⁻⁶ cm/s | Activity [17]: 7.4 µM

Structure (SMILES): COc1ccc(-n2nc(C(N)=O)c3c2C(=O)N(c2ccc(C(C)(C)O)cc2)CC3)cc1
Ki [1]: 9.27 nM

Structure (SMILES): COc1ccc(-n2nc(C(N)=O)c3c2C(=O)N(c2ccc(C(C)(C)N(C)C)cc2)CC3)cc1
Ki [1]: 0.2 nM | Papp [2]: 1.1 ×10⁻⁶ cm/s | Activity [17]: 0.96 µM

Structure (SMILES): COc1ccc(-n2nc(C(N)=O)c3c2C(=O)N(c2ccc(C(C)(C)S(C)(=O)=O)cc2)CC3)cc1
Ki [1]: 0.48 nM | Papp [2]: 1 ×10⁻⁶ cm/s | clearance [3]: 5.33 mL/min/kg | Vd [4]: 0.51 L/kg | half-life [5]: 1.7 h | bioavailability [6]: 79% | Activity [17]: 3.9 µM

Structure (SMILES): COc1ccc(-n2nc(C(N)=O)c3c2C(=O)N(c2ccc(N4CCCCC4=O)cc2)CC3)cc1 [APIXABAN]
clearance [3]: 0.333 mL/min/kg | Vd [4]: 0.2 L/kg

Now from value to molecule, other results behind:

Ki [1]: 0.11 nM | Papp [2]: 4.1 ×10⁻⁶ cm/s | clearance [3]: 64.3 mL/min/kg | Vd [4]: 7.3 L/kg | half-life [5]: 1.86 h | bioavailability [6]: 34%
Structure (SMILES): COc1ccc(-n2nc(S(C)(=O)=O)c3c2C(=O)N(c2ccc(C(C)(C)CN(C)C)cc2)CC3)cc1
Activity [17]: 0.67 µM

Ki [1]: 0.07 nM | Papp [2]: 5.9 ×10⁻⁶ cm/s | clearance [3]: 84 mL/min/kg | Vd [4]: 6.57 L/kg | half-life [5]: 1.04 h | bioavailability [6]: 41%
Structure (SMILES): COc1ccc(-n2nc(C(N)=O)c3c2C(=O)N(c2ccc(C(C)(C)CN(C)C)cc2)CC3)cc1
Activity [17]: 0.45 µM

Ki [1]: 0.05 nM | Papp [2]: 5.6 ×10⁻⁶ cm/s
Structure (SMILES): COc1ccc(-n2nc(C(N)=O)c3c2C(=O)N(c2ccc(C(C)(C)CN4CCCC4)cc2)CC3)cc1
Activity [17]: 0.73 µM

Ki [1]: 0.06 nM | Papp [2]: 17 ×10⁻⁶ cm/s | clearance [3]: 29.3 mL/min/kg | Vd [4]: 5.01 L/kg | half-life [5]: 2.8 h | bioavailability [6]: 10%
Structure (SMILES): COc1ccc(-n2nc(C(N)=O)c3c2C(=O)N(c2ccc(C(C)(C)CN4CCOCC4)cc2)CC3)cc1
Activity [17]: 3.8 µM

Ki [1]: 0.07 nM | Papp [2]: 1.7 ×10⁻⁶ cm/s | clearance [3]: 127 mL/min/kg | Vd [4]: 12 L/kg
Structure (SMILES): COc1ccc(-n2nc(C(N)=O)c3c2C(=O)N(c2ccc(C(C)(C)N4CCCC4)cc2)CC3)cc1
Activity [17]: 0.81 µM

Ki [1]: 0.05 nM | Papp [2]: 2.8 ×10⁻⁶ cm/s
Structure (SMILES): COc1ccc(-n2nc(C(N)=O)c3c2C(=O)N(c2ccc(C(C)(C)CNC4CC4)cc2)CC3)cc1
Activity [17]: 0.68 µM
